This is an account of results in patent US12171868B2 (Neurelis, Inc., priority 2022, dated 2024).

Where two headings read alike, the source gives them in different places.

For this series the following is noted: saturated.

For `Cc1cc2c(s1)Nc1ccccc1N=C2N1CCN(C)CC1` [Olanzapine, 2-methyl-4-(4-methyl-1-piperazinyl)-10H-thieno[2,3-b] [1,5]benzodiazepine], the Appearance result is, setting by setting: (20% Dimethylacetamide/80% PEG 200) “Clear amber solution”; (40% Dimethylacetamide/60% PEG 200) “Clear amber solution”; (60% Dimethylacetamide/40% PEG 200) “Clear dark amber solution”; (80% Dimethylacetamide/20% PEG 200) “Clear dark amber solution”; (100% PEG 200) “Clear amber solution”.
